From US20200048259A1, “KDM5 INHIBITORS” (priority 2016, published 2020)

biological target: T1, Full-length KDM5B enzyme (Homo sapiens, UniProt Q9UGL1); assay: KDM5B TR-FRET Enzyme Activity Assay (LANCE); assay type: biochemical; settings: not given
T1 construct: recombinant protein from baculovirus-transfected Sf21 cells: full-length KDM5B; MW=176.825 kDa; host or cells: baculovirus-transfected Sf21 insect cells
Protocol: KDM5B TR-FRET Enzyme Activity Assay
KDM5B enzymatic activity was determined with the LANCE (Lanthanide Chelate Excite) TR-FRET (Time-resolved fluorescence resonance energy transfer) assay. […] Following a 30 minutes compound and enzyme incubation in a humidified chamber, each reaction was initiated by the addition of 1 μL 1× assay buffer containing […] biotinylated H3K4Me3 peptide, and 500 nM α-ketoglutarate. The final reaction in each well of 5 μL consists of 5 nM KDM5B, 500 nM biotinylated-peptide, and 500 nM α-ketoglutarate. De-methylation reactions were allowed to proceed for 60 minutes. Reactions were immediately quenched by the addition of 5 μL of 2× Lance Detection Buffer (PerkinElmer) with 0.5 mM EDTA and 2 nM of Eu-anti-H3K4Mel-2 antibody, and 30 nM of Streptavidin-conjugated Dylight 650 detection reagents. After 60 minutes incubation with detection reagents, reaction plates were read on a PerkinElmer EnVision plate reader using standard TR-FRET protocol. Briefly, excitation of donor molecules (Eu-chelate-anti-H3K4Me1-2-antibody) with a laser light source at 337 nm produces energy that can be transferred to Dylight-650 acceptor molecules if this donor:acceptor pair is within close proximity.
Fluorescence intensity at both 665 nm (acceptor) and 615 nm (donor) are measured and a TR-FRET ratio calculated for each well (acceptor intensity/donor intensity). IC50 values were determined by 4 parameter robust fit of TR-FRET ratio values vs. (Log 10) compound concentrations.

T1 sequence (Q9UGL1 whole entry): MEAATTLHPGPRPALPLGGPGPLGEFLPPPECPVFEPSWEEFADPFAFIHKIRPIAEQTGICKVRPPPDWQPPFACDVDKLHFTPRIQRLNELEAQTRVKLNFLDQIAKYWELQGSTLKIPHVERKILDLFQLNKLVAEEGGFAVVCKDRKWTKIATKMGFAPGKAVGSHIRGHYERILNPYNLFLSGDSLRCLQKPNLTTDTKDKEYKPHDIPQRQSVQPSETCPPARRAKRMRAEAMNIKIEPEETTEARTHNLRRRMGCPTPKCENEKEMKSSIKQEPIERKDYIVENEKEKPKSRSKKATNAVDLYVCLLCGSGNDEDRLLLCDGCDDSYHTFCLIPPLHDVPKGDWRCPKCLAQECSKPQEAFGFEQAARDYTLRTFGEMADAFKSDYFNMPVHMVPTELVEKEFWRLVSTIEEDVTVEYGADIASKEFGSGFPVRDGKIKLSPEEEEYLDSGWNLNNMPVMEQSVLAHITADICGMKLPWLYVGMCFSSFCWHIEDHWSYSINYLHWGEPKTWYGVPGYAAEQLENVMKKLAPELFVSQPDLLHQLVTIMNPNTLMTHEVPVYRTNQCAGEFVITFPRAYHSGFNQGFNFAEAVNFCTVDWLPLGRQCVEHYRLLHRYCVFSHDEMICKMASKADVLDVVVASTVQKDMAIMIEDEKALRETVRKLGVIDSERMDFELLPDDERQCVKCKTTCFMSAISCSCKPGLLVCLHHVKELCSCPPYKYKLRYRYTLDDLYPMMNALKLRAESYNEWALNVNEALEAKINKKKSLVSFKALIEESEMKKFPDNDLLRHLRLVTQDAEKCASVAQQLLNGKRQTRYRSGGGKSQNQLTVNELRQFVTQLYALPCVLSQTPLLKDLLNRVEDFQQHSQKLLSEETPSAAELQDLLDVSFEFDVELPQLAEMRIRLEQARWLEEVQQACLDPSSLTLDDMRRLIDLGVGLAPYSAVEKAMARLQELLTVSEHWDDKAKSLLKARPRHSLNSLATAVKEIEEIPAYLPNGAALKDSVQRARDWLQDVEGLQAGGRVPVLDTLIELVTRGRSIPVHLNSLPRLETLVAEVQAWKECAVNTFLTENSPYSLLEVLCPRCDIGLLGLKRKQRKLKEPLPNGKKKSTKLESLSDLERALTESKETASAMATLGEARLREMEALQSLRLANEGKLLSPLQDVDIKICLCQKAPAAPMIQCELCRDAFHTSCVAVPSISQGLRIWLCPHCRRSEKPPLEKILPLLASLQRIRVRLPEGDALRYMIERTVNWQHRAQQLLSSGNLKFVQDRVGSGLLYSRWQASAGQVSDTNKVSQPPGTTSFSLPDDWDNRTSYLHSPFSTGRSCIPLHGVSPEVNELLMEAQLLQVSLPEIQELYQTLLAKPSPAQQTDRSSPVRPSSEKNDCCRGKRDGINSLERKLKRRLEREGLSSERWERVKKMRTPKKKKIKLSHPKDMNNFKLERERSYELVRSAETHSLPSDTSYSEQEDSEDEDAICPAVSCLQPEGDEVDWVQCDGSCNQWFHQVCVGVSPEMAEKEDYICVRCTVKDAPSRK

SMILES | IC50 [µM]
Cc1nc2[nH]c(C)c(Cc3ccccc3)c(=O)n2n1 [Example 7-4, 6-benzyl-2,5-dimethyl[1,2,4]triazolo[1,5-a]pyrimidin-7(4H)-one] | > 100
Cc1nc2[nH]c(C(C)C)cc(=O)n2n1 [Example 7-6, 2-methyl-5-(1-methylethyl)[1,2,4]triazolo[1,5-a]pyrimidin-7(4H)-one] | > 100
CCCCc1c(C)[nH]c2nc(C)nn2c1=O [Example 7-8, 6-butyl-2,5-dimethyl[1,2,4]triazolo[1,5-a]pyrimidin-7(4H)-one] | > 100
Cc1nc2[nH]c(C(C)(C)C)cc(=O)n2n1 [Example 7-38, 5-tert-butyl-2-methyl[1,2,4]triazolo[1,5-a]pyrimidin-7(4H)-one] | > 100
Cc1nc2[nH]c(C(F)(F)C(F)(F)F)cc(=O)n2n1 [Example 7-41, 2-methyl-5-(pentafluoroethyl)[1,2,4]triazolo[1,5-a]pyrimidin-7(4H)-one] | > 100
Cc1nc2[nH]c(C)c(C3CCCC3)c(=O)n2n1 [Example 7-45, 6-cyclopentyl-2,5-dimethyl[1,2,4]triazolo[1,5-a]pyrimidin-7(4H)-one] | > 100
Cc1nc2[nH]c(C3CC3)cc(=O)n2n1 [Example 7-46, 5-cyclopropyl-2-methyl[1,2,4]triazolo[1,5-a]pyrimidin-7(4H)-one] | > 100

Next, values leading:

IC50 [µM] | SMILES
> 100 | Cc1[nH]c2nc(C3CC(F)(F)C3)nn2c(=O)c1C(C)C [Example 7-23, 2-(3,3-difluorocyclobutyl)-5-methyl-6-(1-methylethyl)[1,2,4]triazolo[1,5-a]pyrimidin-7(4H)-one]
> 100 | Cc1[nH]c2nc(-c3ccco3)nn2c(=O)c1C(C)C [Example 7-27, 2-furan-2-yl-5-methyl-6-(1-methylethyl)[1,2,4]triazolo[1,5-a]pyrimidin-7(4H)-one]
> 100 | Cc1[nH]c2nc(-c3ccccn3)nn2c(=O)c1C(C)C [Example 7-28, 5-methyl-6-(1-methylethyl)-2-pyridin-2-yl[1,2,4]triazolo[1,5-a]pyrimidin-7(4H)-one]
35.4 | Cc1[nH]c2nc(C(C)C)nn2c(=O)c1C(C)C [Example 7-29, 5-methyl-2,6-bis(1-methylethyl)[1,2,4]triazolo[1,5-a]pyrimidin-7(4H)-one]
> 100 | Cc1[nH]c2nc(N3CCOCC3)nn2c(=O)c1C(C)C [Example 7-30, 5-methyl-6-(1-methylethyl)-2-morpholin-4-yl[1,2,4]triazolo[1,5-a]pyrimidin-7(4H)-one]

same assay, conditions: 5 nM full-length KDM5B, biotinylated H3K4Me3 peptide, 500 nM α-ketoglutarate; ten point titration 100000 nM to 5.08 nM; read-out: IC50

SMILES | IC50 [µM]
CCCc1cc(=O)n2nc(C)nc2[nH]1 [Example 7-2, 2-methyl-5-propyl[1,2,4]triazolo[1,5-a]pyrimidin-7(4H)-one] | 97
CCc1c(C)[nH]c2nc(N)nn2c1=O [Example 7-3, 2-amino-6-ethyl-5-methyl-[1,2,4]triazolo[1,5-a]pyrimidin-7(4H)-one] | 22.2
CCc1c(C)[nH]c2nc(C)nn2c1=O [Example 7-5, 6-ethyl-2,5-dimethyl-[1,2,4]triazolo[1,5-a]pyrimidin-7(4H)-one] | 27.8
CCc1c(C)[nH]c2nc(C(F)(F)F)nn2c1=O [Example 7-9, 6-ethyl-5-methyl-2-(trifluoromethyl)[1,2,4]triazolo[1,5-a]pyrimidin-7(4H)-one] | 9.09
Cc1cc(=O)n2nc(-c3ccncc3)nc2[nH]1 [Example 7-10, 5-methyl-2-(pyridin-4-yl)-[1,2,4]triazolo[1,5-a]pyrimidin-7(4H)-one] | 4.28
Cc1nc2[nH]c(C(F)(F)F)cc(=O)n2n1 [Example 7-11, 2-methyl-5-(trifluoromethyl)-[1,2,4]triazolo[1,5-a]pyrimidin-7(4H)-one] | 27.9
CCc1cc(=O)n2nc(C)nc2[nH]1 [Example 7-12, 5-ethyl-2-methyl-[1,2,4]triazolo[1,5-a]pyrimidin-7(4H)-one] | 73.7
CCOC(=O)c1[nH]c2nc(C)nn2c(=O)c1Cl [Example 7-13, ethyl 6-chloro-2-methyl-7-oxo-4,7-dihydro[1,2,4]triazolo[1,5-a]pyrimidine-5-carboxylate] | 2.96
CCc1c(C)[nH]c2nc(C(=O)OC)nn2c1=O [Example 7-14, methyl 6-ethyl-5-methyl-7-oxo-4,7-dihydro[1,2,4]triazolo[1,5-a]pyrimidine-2-carboxylate] | 34.9
COC(=O)Cc1c(C)[nH]c2nc(C(=O)OC)nn2c1=O [Example 7-15, methyl 6-(2-methoxy-2-oxoethyl)-5-methyl-7-oxo-4,7-dihydro[1,2,4]triazolo[1,5-a]pyrimidine-2-carboxylate] | 68.1
CCc1c(-c2ccccc2)[nH]c2nc(C)nn2c1=O [Example 7-20, 6-ethyl-2-methyl-5-phenyl[1,2,4]triazolo[1,5-a]pyrimidin-7(4H)-one] | 3.97
CCc1c(-c2ccn(C)n2)[nH]c2nc(C)nn2c1=O [Example 7-33, 6-ethyl-2-methyl-5-(1-methyl-1H-pyrazol-3-yl)[1,2,4]triazolo[1,5-a]pyrimidin-7(4H)-one] | 4.24
Cc1nc2[nH]c(-c3ccn(C)n3)cc(=O)n2n1 [Example 7-36, 2-methyl-5-(1-methyl-1H-pyrazol-3-yl)[1,2,4]triazolo[1,5-a]pyrimidin-7(4H)-one] | 25.4
Cc1nc2[nH]c(-c3ccc(F)cc3)cc(=O)n2n1 [Example 7-39, 5-(4-fluorophenyl)-2-methyl[1,2,4]triazolo[1,5-a]pyrimidin-7(4H)-one] | 8.07
Cc1nc2[nH]c(-c3ccoc3)cc(=O)n2n1 [Example 7-40, 5-furan-3-yl-2-methyl[1,2,4]triazolo[1,5-a]pyrimidin-7(4H)-one] | 36.7
COc1c(C(F)(F)F)[nH]c2nc(C)nn2c1=O [Example 7-42, 6-methoxy-2-methyl-5-(trifluoromethyl)[1,2,4]triazolo[1,5-a]pyrimidin-7(4H)-one] | 21.1
Cc1nc2[nH]c(-c3ccccn3)cc(=O)n2n1 [Example 7-43, 2-methyl-5-pyridin-2-yl[1,2,4]triazolo[1,5-a]pyrimidin-7(4H)-one] | 23.2
Cc1nc2[nH]c(-c3ccco3)cc(=O)n2n1 [Example 7-44, 5-furan-2-yl-2-methyl[1,2,4]triazolo[1,5-a]pyrimidin-7(4H)-one] | 33.8

The remaining lines, values ahead:

IC50 [µM] | SMILES
32 | Cc1nc2[nH]c(C)c(C)c(=O)n2n1 [Example 7-7, 2,5,6-trimethyl[1,2,4]triazolo[1,5-a]pyrimidin-7(4H)-one]
3.41 | Cc1[nH]c2nc(N)nn2c(=O)c1C(C)C [Example 7-16, 2-amino-5-methyl-6-(1-methylethyl)[1,2,4]triazolo[1,5-a]pyrimidin-7(4H)-one]
48.6 | Cc1[nH]c2nc(C3CC3)nn2c(=O)c1C(C)C [Example 7-18, 2-cyclopropyl-5-methyl-6-(1-methylethyl)[1,2,4]triazolo[1,5-a]pyrimidin-7(4H)-one]
92.7 | Cc1[nH]c2nc(C3CCC3)nn2c(=O)c1C(C)C [Example 7-19, 2-cyclobutyl-5-methyl-6-(1-methylethyl)[1,2,4]triazolo[1,5-a]pyrimidin-7(4H)-one]
7.99 | Cc1nc2[nH]c(C)c(C(C)C)c(=O)n2n1 [Example 7-21, 2,5-dimethyl-6-(1-methylethyl)[1,2,4]triazolo[1,5-a]pyrimidin-7(4H)-one]
33.7 | Cc1[nH]c2nc(-c3ccc(F)cc3)nn2c(=O)c1C(C)C [Example 7-24, 2-(4-fluorophenyl)-5-methyl-6-(1-methylethyl)[1,2,4]triazolo[1,5-a]pyrimidin-7(4H)-one]
67.6 | Cc1[nH]c2nc(-c3ccc(C(F)(F)F)cc3)nn2c(=O)c1C(C)C [Example 7-25, 5-methyl-6-(1-methylethyl)-2-[4-(trifluoromethyl)phenyl][1,2,4]triazolo[1,5-a]pyrimidin-7(4H)-one]
95.8 | Cc1[nH]c2nc(-c3ccccc3Cl)nn2c(=O)c1C(C)C [Example 7-26, 2-(2-chlorophenyl)-5-methyl-6-(1-methylethyl)[1,2,4]triazolo[1,5-a]pyrimidin-7(4H)-one]
39.2 | Cc1nc2[nH]c(C)c(Cl)c(=O)n2n1 [Example 7-31, 6-chloro-2,5-dimethyl[1,2,4]triazolo[1,5-a]pyrimidin-7(4H)-one]
2.07 | Cc1[nH]c2nc(C(F)(F)F)nn2c(=O)c1C(C)C [Example 7-32, 5-methyl-6-(1-methylethyl)-2-(trifluoromethyl)[1,2,4]triazolo[1,5-a]pyrimidin-7(4H)-one]
1.25 | Cc1[nH]c2nc(Cl)nn2c(=O)c1C(C)C [Example 7-34, 2-chloro-5-methyl-6-(1-methylethyl)[1,2,4]triazolo[1,5-a]pyrimidin-7(4H)-one]
1.92 | Cc1[nH]c2nc(Br)nn2c(=O)c1C(C)C [Example 7-35, 2-bromo-5-methyl-6-(1-methylethyl)[1,2,4]triazolo[1,5-a]pyrimidin-7(4H)-one]
66.5 | Cc1[nH]c2nc(CCCO)nn2c(=O)c1C(C)C [Example 7-37, 2-(3-hydroxypropyl)-5-methyl-6-(1-methylethyl)[1,2,4]triazolo[1,5-a]pyrimidin-7(4H)-one]
